In PMC4513902, “Evaluation of a new radiolabeled bombesin derivative with ^99mTc as potential targeted tumor imaging agent” (Journal of Radioanalytical and Nuclear Chemistry, 2013):
Like-named read-outs stand apart in the source and are kept apart here.

What was measured:
[1] = test system: human GRP receptor cell line PC-3; conditions: after 4 h in PC-3; previous compound; cited from earlier work
From the text: Compare with our pervious compound [^99mTc-tricine-HYNIC^0-D-Tyr^6-D-Trp^8]

[2] = test system: human GRP receptor cell line PC-3; assay: Internalization assay in PC-3 cells; type: cell-based; conditions: 1 million cells per well, about 150 kBq (2.5 pmol total peptide) per well, acid resistant fraction, gamma counter
Experimental: The human androgen-independent prostate carcinoma cell line PC-3 was obtained from National Cell Bank of Iran (NCBI) affiliated to Pasteur Institute of Iran. The cells were grown in DMEM supplemented with 10 % (v/v) fetal bovine serum (FBS), 1 % L-glutamine (2 mM),1 % penicillin(100 IU/ml)/streptomycin(100 μg/ml) and 1 % amphotericin B(0.25 μg/ml). The cells were incubated at 37 °C in a humidified atmosphere containing 5 % CO2 and were subcultured weekly detaching with trypsin/EDTA solution (0.25 %).
Medium was removed from the 6-well plates contain PC-3 cells with density of 1 million cells per well and cells were washed once with 2 ml of internalization medium (DMEM with 1 % FBS). Furthermore, 1.5 ml internalization medium was added to each well, and the plates were incubated at 37 °C for about 1 h. Afterwards, about 150 kBq (2.5 pmol total peptide mass per well) was added to the medium, and the cells were incubated at 37 °C for various time periods. To determine nonspecific internalization, we incubated cells with the radioligand in the presence of 150 μl, 1 μmol/l Bombesin. The cellular uptake was stopped at appropriate time periods (30 min, 1 h, 2 h and 4 h) by removing medium from the cells and washing twice with 1 ml of ice-cold phosphate-buffered saline (PBS). […] The culture medium, the receptor-bound and internalized fractions were measured radiometrically in a gamma counter.

Human serum stability = type: in vitro ADME
Experimental: To 1 mL of freshly prepared human serum, we added 100 μl (14.8–29.6 MBq) radiolabeled BB derivative and mixture was incubated at 37 °C. 100 μl aliquots was removed and treated with 200 μl of ethanol at different times up to 24 h. Sample was centrifuged at 3,000 rpm for 15 min to precipitate serum proteins. The supernatant was filtered through a 0.20 μm pore filter and analyzed with RP-HPLC Gradient I to determine radiochemical stability.

[3] = Biodistribution in nude mice bearing PC-3 tumors; type: in vivo, mouse
Experimental: Animal experiments were performed in compliance with the regulations of our institution and with generally accepted guidelines governing such a work. A suspension of human PC-3 cells (1 × 10^7) in PBS buffer was subcutaneously injected in the right flank of each nude mouse. Seven to 10 days after inoculation, the tumors were inducted and then an activity of 20 MBq (0.35 nmol) of ^99mTc-Bombesin was injected via the femoral vein. In order to determine the non-specific uptake of the radiopeptides, in receptor-positive organs, a group of 3 animals were injected with 100 μg cold peptide in 50 μl saline as a co-injection with the radiopeptides (blocked animals). After 1, 4 and 24 h, the mice in groups of 3 animals were scarified, organs of interest were collected, weighed and radioactivity was measured in a gamma counter. The percentage of the injected dose per gram (% ID/g) was calculated for each tissue.

[4] = Radiochemical stability post labeling at room temperature; type: physicochemical
PC-3 tumor cell = assay: Efflux of radiopeptide from PC-3 tumor cells; type: cell-based, human; conditions: after 4 h
[5] = 1 h after injection, nude mice with PC-3 tumor, 20 MBq (0.35 nmol) via femoral vein, n = 3
[6] = 4 h, unblocked vs. blocked mice, P < 0.05

| Substance | internalization into PC-3 cells [1] [%] | internalization into PC-3 cells ([2]; 0.5 h incubation at 37 °C, mean ± SD) [%] | internalization into PC-3 cells ([2]; 1 h incubation at 37 °C, three independent experiments with triplicates) [%] | radiochemical purity remaining in human serum (Human serum stability; after 24 h in freshly prepared human serum, 37 °C, 100 μl (14.8–29.6 MBq) in 1 mL serum, ethanol precipitation, RP-HPLC Gradient I) [%] | time of good stability in human serum (Human serum stability; human serum at 37 °C, no significant impurities detected by HPLC) | uptake in PC-3 tumor [3, 5] [% ID/g] | uptake in pancreas [3, 5] [% ID/g] | Reduction of uptake in pancreas by blocking with cold peptide [3, 6] [%] | Reduction of uptake in tumor by blocking with cold peptide [3, 6] [%] | time stable post labeling (radiochemical stability) [4] [h] | efflux rate of radiopeptide from PC-3 tumor cell (PC-3 tumor cell) |
| --- | --- | --- | --- | --- | --- | --- | --- | --- | --- | --- | --- |
| [^99mTc-tricine-HYNIC^0-D-Tyr^6-D-Trp^8] BB (6–14) | 10.7 ± 1.2 |  |  |  |  |  |  |  |  |  |  |
| [^99mTc/tricine/HYNIC^0, D-Tyr^5-D-Tyr^6-D-Phe^13] Bombesin (5–14) NH2 [new bombesin derivative labeled with ^99mTc via HYNIC and tricine as a coligand] |  | 2.3 ± 0.9 | 5.3 ± 1.1 | > 90 | at least 24 h | 2.11 ± 0.18 | 1.78 ± 0.09 | 76 | 82 | ≥ 24 | acceptable intercellular trapping |
